What was measured:
[1] = test system: Desulfovibrio vulgaris biofilm; test: Biofilm removal, Crystal Violet Assay (anaerobic, 24 h treatment of pre-formed biofilm); format: cell-based
Protocol: A lyophilized D. vulgaris pure culture received from ATTCC was resuspended in 500 ul of MB 1249. Aseptically, the content was transferred to a 5¬mL tube of MB1249 medium. The culture was incubated in an anaerobic chamber at 30° C. for 72 hrs. Subsequently, a stock culture with a final concentration of 25% glycerol was prepared by adding equal volumes of culture and 50% glycerol. 1 ml of culture was then transferred to 2-ml cryogenic vials and stored AT-80c. The purity of the stock culture was evaluated through PCR, by amplifying the 16S rDNA region, and thus, it was verified that the original ATCC sample was a pure culture.
A 10% culture was prepared by taking 1 mL of stock culture and adding it to 9 mL of MB1249, then the culture was placed into a 30° C. side incubator within the chamber and incubated for 72 hours. After 72 hours of incubation, the 10-ml D. vulgaris culture was added to 40 ml of MB1249 medium and incubated for 48 hours. After the incubation time, the optical density of the culture was determined by taking 100 μL of culture and adding it to 900 μL of MB1249 in a cuvette. Another cuvette was filled with 1 mL of MB1249 for a blank. Then, each of culture cuvettes were read and their optical density (O.D.) was recorded by using the Thermofisher Spectronic 200 Spectrophotometer at 620 nm. Using a C1V1=C2V2 calculation and the optical density, the final concentration of culture added to the 96 well plates was ˜0.1 O.D. Then, NUNC Round bottom 96 well plates were filled with culture and anaerobic PBS+10% MB1249. The plates were placed into the side incubator of the anaerobic chamber at 30° C. for 24 hours to form biofilm.
After 24 hours of incubation at 30° C., all plates were removed from the incubator and the volume from each well was taken out with a multi-channel pipette. Then, the wells were re-filled with PBS+10% MB1249 and treatments.
The sugar analogues used in the treatment were α-Methyl D-Mannoside (αMM) and 2-Deoxy-D-Glucose (2DG). Both αMM and 2DG were purchased from Sigma. Stocks were prepared (W/V) by weighing sugar and adding anaerobic water inside the anaerobic chamber. The Glutaraldehyde, AQUCAR™ GA50 (“Glutaraldehyde”), was prepared outside of the chamber (V/V) as a safety measure. Each of the components were added at their respective concentrations for a final volume of 200 ul per well. In Table 3, the concentrations used for the synergy experiments are listed. Each experiment was done with at least six replicates for different treatments and at least 8 replicates for non-treatment controls.
Plates were then sealed with a titer-top and placed into anaerobic boxes with a gas pack. Then, incubated in an aerobic shaking incubator, 30° C. at 115 RPM. After 24 hours, the plates were processed using a Crystal Violet Assay.
After 24 hours of treatment, all the treatment solution was gently removed from plates using a multi-channel pipette. Then, 250 μL of DI water was re-filled into the wells. This step was then repeated so the plates were each rinsed twice. If residual DI water was in plates, they were inverted and gently patted onto a thick paper towel. Then, the plates were air dried in a ventilated hood.
To fix the biofilm in the wells, 250 μL per well of methanol was used, waiting time 5 minutes. This methanol was then removed and allowed to air dry. […] Then, the plates were placed into the Biotek Cytation 5, and the optical density (OD) was read at 600 nm. […]

[2] = test system: anaerobic D. vulgaris biofilms; details: high levels of sugar analogs needed; WO2019/018087; cited from earlier work

SMILES: O=CC[C@@H](O)[C@H](O)[C@H](O)CO [2DG, 2-Deoxy-D-Glucose]
- % OD compared to no-treatment control ([1]; standalone, 2000 ppm): 101.7%
- dispersal of anaerobic D. vulgaris biofilms [2]: disperse anaerobic D. vulgaris biofilms

SMILES: O=CCCCC=O [Glutaraldehyde]
- % OD compared to no-treatment control ([1]; Glutaraldehyde 25 ppm alone (2DG 0 ppm), 2DG combination experiment): 92.7%
- % OD compared to no-treatment control ([1]; Glutaraldehyde 25 ppm alone (αMM 0 ppm), αMM combination experiment): 99.3%
- % OD compared to no-treatment control ([1]; standalone, 2500 ppm): 97.4%

SMILES: CO[C@H]1O[C@H](CO)[C@@H](O)[C@H](O)[C@@H]1O [αMM, α-Methyl D-Mannoside]
- % OD compared to no-treatment control ([1]; standalone, 2000 ppm): 100.3%
- dispersal of anaerobic D. vulgaris biofilms [2]: disperse anaerobic D. vulgaris biofilms

Reference: patent US12509373B2, “Composition and method for the removal of biofilm” (LANXESS Corporation, priority 2020, dated 2025)
